# Results from patent US6946125B2, “Methods of treating West Nile virus infection” (The New York Hospital Medical Center of Queens, priority 2000, dated 2005).
# Tests used:
# mice [1] = assay: Mutagenicity of ribavirin in mice; conditions: from mice
# mice [2] = conditions: cited from earlier work
# West Nile virus (WNV) = assay: Suppression of West Nile virus in Vero cell culture, colorimetric assay of cellular lactic dehydrogenase (O.D. 490); conditions: for Mean O.D. 490 value: Vero cells
# Description: The vertical axis represents a colorimetric assay of cellular lactic dehydrogenase which is directly proportional to cell viability and proliferation.
# (§1) In vitro: Studies have been conducted utilized a bovine kidney cell monolayer infected with a strain of WNV isolated from mosquitoes and birds in Connecticut. Cytotoxicity was assayed by measuring the decrease in release of lactate dehydrogenase from infected cells, as compared with uninfected controls.
# [3] = after 600 mg given every 6 hours; cited from earlier work
# [4] = cited from earlier work
# [5] = system: green monkey kidney cells; assay: Cytotoxic effect of ribavirin in cell culture; assay type: cell-based
# Description: as §1
smiles,measurement,setting,value
"NC(=O)c1ncn([C@@H]2O[C@H](CO)[C@@H](O)[C@H]2O)n1 [Ribavirin, 1-β-D-ribofuranosyl-1H-1,2,4-triazole-3-carboxamide, reference compound]",estimated human equivalent of mutagenic dose,mice [1],1.67 to 16.7 mg/kg
same,dose known to be mutagenic,mice [2],20 to 200 mg/kg
same,Mean O.D. 490 value,West Nile virus (WNV); Ribavirin 0.2 uM applied 2 hours prior to infection of cells with WNV,0.72c
same,Mean O.D. 490 value,West Nile virus (WNV); Ribavirin 0.3 uM applied 2 hours prior to infection of cells with WNV,1.11a
same,Mean O.D. 490 value,West Nile virus (WNV); Ribavirin 0.4 uM applied 2 hours prior to infection of cells with WNV,1.24b
same,Mean O.D. 490 value,West Nile virus (WNV); Ribavirin 0.5 uM applied 2 hours prior to infection of cells with WNV,1.24b
same,Mean O.D. 490 value,West Nile virus (WNV); Ribavirin 0.6 uM applied 2 hours prior to infection of cells with WNV,1.06a
same,concentration protective or prophylactic against infection,West Nile virus (WNV); WNV infection of bovine kidney cells in vitro,400 µM
same,concentration that suppressed viral replication,West Nile virus (WNV); applied after infection,500 µM
same,activity in vitro against WNV infection,West Nile virus (WNV); bovine kidney cells,active
same,protective concentration expressed as mass concentration,West Nile virus (WNV); equivalent of 400 uM,approximately 100 ug/ml
same,concentration in human serum,[3],1 µg/mL
same,dose at which inhibition of erythrocyte release from bone marrow occurs,[4]; high doses,30 mg/kg
same,reduction from baseline hematocrit,"[4]; human, in vivo",≤ 20%
same,reduction in baseline hemoglobin,"[4]; human, in vivo",10-12%
same,toxicity (in words),"[4]; human, in vivo",hemolysis
same,Bioavailability,[4]; patients with renal dysfunction,increased
same,teratogenicity,"[4]; should not be given during, or within 6 months of pregnancy",teratogenic
same,concentration at which a cytotoxic effect occurred,[5],600 to 1000 µM
